Measurements: PubChem BioAssay (NCI)
Several values for one entry are separate records, joined by “and”; a condition that tells them apart may be missing. Identical values can stand only once.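 Results reflect a 48-hour exposure of cells in 96-well plates to compound at five concentrations. GI50 = concentration required for 50% inhibition of growth. TGI: concentration producing complete growth inhibition.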

Assays:
Assay in all cases: NCI tumour cell line growth inhibition, 48 h
HCT-15 colon = system: HCT-15 colon
SNB-19 CNS = system: SNB-19 CNS
DMS 114 small cell lung = system: DMS 114 small cell lung
NCI-H226 lung = system: NCI-H226 lung
HOP-62 NSCLC = system: HOP-62 NSCLC
M19-MEL melanoma = system: M19-MEL melanoma
M14 melanoma = system: M14 melanoma
SR leukemia = system: SR leukemia
RPMI-8226 leukemia = system: RPMI-8226 leukemia
CCRF-CEM leukemia = system: CCRF-CEM leukemia
P388 leukemia = system: P388 leukemia
MALME-3M melanoma = system: MALME-3M melanoma
SN12C renal = system: SN12C renal
BT-549 breast = system: BT-549 breast
HCT-116 colon = system: HCT-116 colon
DLD-1 colon = system: DLD-1 colon
SF-268 CNS = system: SF-268 CNS
RXF 393 renal = system: RXF 393 renal
A498 renal = system: A498 renal
HOP-92 NSCLC = system: HOP-92 NSCLC
MDA-MB-435 = system: MDA-MB-435
UACC-62 melanoma = system: UACC-62 melanoma
LXFL 529 NSCLC = system: LXFL 529 NSCLC
SK-OV-3 ovarian = system: SK-OV-3 ovarian
SW-620 colon = system: SW-620 colon
P388/ADR leukemia = system: P388/ADR leukemia
DU-145 prostate = system: DU-145 prostate
KM12 colon = system: KM12 colon
COLO 205 colon = system: COLO 205 colon
ACHN renal = system: ACHN renal
HOP-18 NSCLC = system: HOP-18 NSCLC
A549 NSCLC = system: A549 NSCLC
SK-MEL-2 melanoma = system: SK-MEL-2 melanoma
MCF7 breast = system: MCF7 breast
NCI/ADR-RES ovarian = system: NCI/ADR-RES ovarian
DMS 273 small cell lung = system: DMS 273 small cell lung
KM20L2 colon = system: KM20L2 colon
XF 498 CNS = system: XF 498 CNS
LOX IMVI melanoma = system: LOX IMVI melanoma
SK-MEL-5 melanoma = system: SK-MEL-5 melanoma
OVCAR-5 ovarian = system: OVCAR-5 ovarian
786-0 renal = system: 786-0 renal
SK-MEL-28 melanoma = system: SK-MEL-28 melanoma
TK-10 renal = system: TK-10 renal
OVCAR-8 ovarian = system: OVCAR-8 ovarian
T-47D breast = system: T-47D breast
IGROV1 ovarian = system: IGROV1 ovarian
SN12K1 renal = system: SN12K1 renal
MDA-MB-231 breast = system: MDA-MB-231 breast
SF-539 CNS = system: SF-539 CNS
HS 578T breast = system: HS 578T breast
NCI-H23 lung = system: NCI-H23 lung
SF-295 CNS = system: SF-295 CNS
CAKI-1 renal = system: CAKI-1 renal
NCI-H460 lung = system: NCI-H460 lung
K-562 leukemia = system: K-562 leukemia
PC-3 prostate = system: PC-3 prostate
OVCAR-4 ovarian = system: OVCAR-4 ovarian
EKVX NSCLC = system: EKVX NSCLC
SNB-75 CNS = system: SNB-75 CNS
SNB-78 CNS = system: SNB-78 CNS
HT29 colon = system: HT29 colon
HL-60(TB) leukemia = system: HL-60(TB) leukemia
U251 CNS = system: U251 CNS
UO-31 renal = system: UO-31 renal
MOLT-4 leukemia = system: MOLT-4 leukemia
OVCAR-3 ovarian = system: OVCAR-3 ovarian
HCC-2998 colon = system: HCC-2998 colon
UACC-257 melanoma = system: UACC-257 melanoma
NCI-H522 lung = system: NCI-H522 lung
MDA-N = system: MDA-N

In the case of `COc1ccc2cc3[n+](cc2c1OC)CCc1cc2c(cc1-3)OCO2`, the GI50 (HCT-15 colon) is reported as > 100 µM and 216 µM, the TGI (HCT-15 colon) is reported as over 325 µM and the GI50 (SNB-19 CNS) is reported as 0.831 µM. The TGI (SNB-19 CNS) was > 100 µM and > 77.2 µM and 145 µM, the TGI (DMS 114 small cell lung) was > 64.8 µM and 76.7 µM and the TGI (NCI-H226 lung) was > 100 µM and 94.9 µM and 67.5 µM. The TGI (HOP-62 NSCLC) was > 100 µM and 42.4 µM, the TGI (M19-MEL melanoma) was 22.4 µM and 41.6 µM and the GI50 (M14 melanoma) was 16.9 µM. For the same molecule, the TGI (SR leukemia) was > 100 µM and 71.5 µM and > 75.6 µM, the TGI (RPMI-8226 leukemia) was over 100 µM and the GI50 (CCRF-CEM leukemia) was 9.29 µM. For the same molecule, the TGI (P388 leukemia) was 69.6 µM, the GI50 (MALME-3M melanoma) was 2.24 µM and 5.1 µM and the TGI (MALME-3M melanoma) was 27.8 µM [middle of 5 runs]. The TGI (SN12C renal) was > 100 µM and 75.2 µM and 81 µM, the GI50 (BT-549 breast) was 3.71 µM and 2.59 µM and 5.39 µM and the TGI (BT-549 breast) was > 100 µM and 56.9 µM. The TGI (HCT-116 colon) was > 100 µM and > 76.7 µM and 79.8 µM, the GI50 (DLD-1 colon) was 26.2 µM and 54.2 µM and the TGI (DLD-1 colon) was > 59.9 µM and 253 µM. For the same molecule, the GI50 (SF-268 CNS) was 4.68 µM, the GI50 (RXF 393 renal) was 50.7 µM and the TGI (RXF 393 renal) was > 100 µM and 223 µM. The TGI (A498 renal) was over 307 µM, the GI50 (HOP-92 NSCLC) was 8.54 µM and the GI50 (MDA-MB-435) was 7.35 µM. For the same molecule, the TGI (MDA-MB-435) was 25.8 µM and 27 µM and 40.5 µM, the GI50 (UACC-62 melanoma) was 7.24 µM and the TGI (LXFL 529 NSCLC) was over 74.9 µM. The GI50 (SK-OV-3 ovarian) was 38 µM, the TGI (SK-OV-3 ovarian) was > 100 µM and 194 µM and the GI50 (SW-620 colon) was 14.8 µM and 25.2 µM. The TGI (SW-620 colon) was > 100 µM and > 73.8 µM and 170 µM, the TGI (P388/ADR leukemia) was over 325 µM and the TGI (DU-145 prostate) was over 100 µM. For the same molecule, the GI50 (KM12 colon) was 2.79 µM and 4.27 µM, the GI50 (COLO 205 colon) was 7.46 µM [middle of 5 runs] and the TGI (COLO 205 colon) was 33.3 µM [middle of 5 runs]. The TGI (ACHN renal) was over 100 µM, the TGI (HOP-18 NSCLC) was > 100 µM and 207 µM and the TGI (A549 NSCLC) was over 325 µM. For the same molecule, the GI50 (SK-MEL-2 melanoma) was 11.4 µM and 17.5 µM, the TGI (MCF7 breast) was > 100 µM and > 88.3 µM and 126 µM and the GI50 (NCI/ADR-RES ovarian) was > 100 µM and 323 µM. For the same molecule, the TGI (NCI/ADR-RES ovarian) was over 325 µM, the TGI (DMS 273 small cell lung) was 73.7 µM and 49.4 µM and the TGI (KM20L2 colon) was > 92.5 µM and 94.6 µM. For the same molecule, the TGI (XF 498 CNS) was 66.6 µM and 31.4 µM, the TGI (LOX IMVI melanoma) was over 201 µM and the GI50 (SK-MEL-5 melanoma) was 1.26 µM. The TGI (OVCAR-5 ovarian) was > 100 µM and 149 µM, the GI50 (786-0 renal) was 72.7 µM and the TGI (786-0 renal) was over 100 µM. For the same molecule, the GI50 (SK-MEL-28 melanoma) was 11.2 µM and 17.2 µM, the TGI (TK-10 renal) was over 100 µM and the GI50 (OVCAR-8 ovarian) was 3.69 µM. For the same molecule, the GI50 (T-47D breast) was 1.88 µM, the TGI (T-47D breast) was 29.5 µM and 42.2 µM and > 68 µM and the GI50 (IGROV1 ovarian) was 18.4 µM. The TGI (IGROV1 ovarian) was > 100 µM and 137 µM, the TGI (SN12K1 renal) was 37.7 µM and the GI50 (MDA-MB-231 breast) was 15.9 µM. The TGI (MDA-MB-231 breast) was over 100 µM, the GI50 (SF-539 CNS) was 18.1 µM and the TGI (SF-539 CNS) was > 100 µM and 83.1 µM. The TGI (HS 578T breast) was > 100 µM and 87.1 µM and 40.7 µM, the GI50 (NCI-H23 lung) was 6.34 µM and the TGI (SF-295 CNS) was > 100 µM and 147 µM. The GI50 (CAKI-1 renal) was > 100 µM and 16.8 µM and 65 µM, the TGI (CAKI-1 renal) was > 100 µM and 210 µM and the GI50 (NCI-H460 lung) was 6.22 µM. For the same molecule, the GI50 (K-562 leukemia) was 12.3 µM and 11 µM and 23.5 µM, the TGI (K-562 leukemia) was > 100 µM and > 49.7 µM and 199 µM and the GI50 (PC-3 prostate) was 6.61 µM. For the same molecule, the TGI (PC-3 prostate) was over 100 µM, the TGI (OVCAR-4 ovarian) was 93.7 µM and > 100 µM and 62 µM and the TGI (EKVX NSCLC) was > 100 µM and 175 µM. The GI50 (SNB-75 CNS) was 21.4 µM, the TGI (SNB-78 CNS) was > 100 µM and 167 µM and the GI50 (HT29 colon) was 23.7 µM. For the same molecule, the TGI (HT29 colon) was > 100 µM and > 92.7 µM and 87.6 µM.
For `O=NNc1cnccn1`, the TGI (HCT-15 colon) was over 1250 µM, the TGI (SNB-19 CNS) was over 1250 µM and the TGI (DMS 114 small cell lung) was over 1250 µM. It also gave a TGI (NCI-H226 lung) of over 1250 µM, a TGI (HL-60(TB) leukemia) of over 852 µM and a TGI (HOP-62 NSCLC) of 265 µM. The TGI (M19-MEL melanoma) was over 1250 µM, the TGI (M14 melanoma) was over 1250 µM and the TGI (SR leukemia) was over 1110 µM. The TGI (RPMI-8226 leukemia) was over 1250 µM, the TGI (CCRF-CEM leukemia) was over 1250 µM and the TGI (P388 leukemia) was over 1250 µM. It also gave a TGI (MALME-3M melanoma) of over 1250 µM, a TGI (SN12C renal) of over 1250 µM and a TGI (BT-549 breast) of over 1250 µM. It also gave a TGI (HCT-116 colon) of over 1250 µM, a TGI (DLD-1 colon) of over 1250 µM and a TGI (SF-268 CNS) of over 1250 µM. It also gave a TGI (RXF 393 renal) of over 1250 µM, a TGI (A498 renal) of over 1250 µM and a TGI (U251 CNS) of over 1250 µM. The TGI (HOP-92 NSCLC) was over 1250 µM, the TGI (MDA-MB-435) was over 1250 µM and the TGI (UACC-62 melanoma) was over 1220 µM. It also gave a TGI (UO-31 renal) of over 1250 µM, a TGI (SK-OV-3 ovarian) of over 330 µM and a TGI (SW-620 colon) of over 1250 µM. It also gave a TGI (P388/ADR leukemia) of over 1250 µM, a TGI (DU-145 prostate) of over 1250 µM and a TGI (KM12 colon) of over 1250 µM. It also gave a TGI (COLO 205 colon) of over 1250 µM, a TGI (ACHN renal) of over 1250 µM and a TGI (HOP-18 NSCLC) of over 1250 µM. The TGI (A549 NSCLC) was over 1250 µM, the TGI (SK-MEL-2 melanoma) was over 1250 µM and the TGI (MCF7 breast) was 1240 µM. The TGI (NCI/ADR-RES ovarian) was over 1250 µM, the TGI (DMS 273 small cell lung) was over 1250 µM and the TGI (KM20L2 colon) was over 1250 µM. The TGI (LOX IMVI melanoma) was over 1250 µM, the TGI (SK-MEL-5 melanoma) was over 1250 µM and the TGI (OVCAR-5 ovarian) was over 1250 µM. For the same molecule, the TGI (786-0 renal) was over 1250 µM, the TGI (SK-MEL-28 melanoma) was over 1250 µM and the TGI (TK-10 renal) was over 1250 µM. For the same molecule, the TGI (OVCAR-8 ovarian) was over 1250 µM, the TGI (T-47D breast) was over 1250 µM and the TGI (IGROV1 ovarian) was over 1250 µM. It also gave a TGI (SN12K1 renal) of over 1250 µM, a TGI (MOLT-4 leukemia) of 876 µM and a TGI (OVCAR-3 ovarian) of over 1250 µM. The TGI (MDA-MB-231 breast) was over 1250 µM, the TGI (SF-539 CNS) was over 1250 µM and the TGI (HS 578T breast) was over 1250 µM. It also gave a TGI (HCC-2998 colon) of over 1250 µM, a TGI (UACC-257 melanoma) of over 1250 µM and a TGI (NCI-H23 lung) of over 1250 µM. It also gave a TGI (SF-295 CNS) of over 1250 µM, a TGI (CAKI-1 renal) of over 1250 µM and a TGI (NCI-H522 lung) of over 1250 µM. It also gave a TGI (NCI-H460 lung) of over 1250 µM, a TGI (K-562 leukemia) of over 1250 µM and a TGI (PC-3 prostate) of over 1250 µM. For the same molecule, the TGI (OVCAR-4 ovarian) was over 1250 µM, the TGI (EKVX NSCLC) was over 1250 µM and the TGI (MDA-N) was over 1250 µM. It also gave a TGI (SNB-75 CNS) of over 1250 µM, a TGI (SNB-78 CNS) of over 1250 µM and a TGI (HT29 colon) of over 1250 µM.
